In assay [1] the target is T1, myosin light chain kinase (MLCK) (Gallus gallus, UniProt P11799).
T1 construct: chicken gizzard MLCK prepared as described; from tissue; host or cells: chicken gizzard
Nature of the assay: Reconstituted enzyme assay, MLCK. The assay is classed as biochemical, chicken. The following applies: Table 6; read-out: Inhibition MLCK. Here is the method: (§1) [table] […] The rationale for using BV-2 cells in high throughput screening was the paucity of well-characterized human microglial cell lines, and the relevant activation responses and signaling pathways reflect those seen in human and rodent primary microglial cultures. Compounds were tested for their effects on NO accumulation in conditioned media of LPS-stimulated BV-2 cells by measurement of nitrite production by the Griess assay as a read-out for iNOS activity, as described previously. Stock solutions of compounds were prepared in dimethylsulfoxide (DMSO) or in water. When stock solutions were prepared in DMSO, control wells contained the same final concentration of DMSO as the compound-containing wells. […] Solutions of compounds for cell treatments were diluted to a 10× final concentration by dilution of stock solutions in αMEM media. […] Reconstituted enzyme assays were done as described s. The sources of protein kinases were: bovine heart PKA from Promega, rat brain PKC from Calbiochem, rat CaMKII from New England Biolabs, chicken gizzard MLCK prepared as described, and a p38 MAP kinase kit containing recombinant Xenopus p38-MAPK and its human substrate from Upstate Biotechnology. The catalytic domains of these protein kinases retain a high level of amino acid sequence identity across mammalian species, consistent with the lack of documented major differences across species for the in vitro catalytic activity of a given kinase.

The target in assay [2] is death associated protein kinase (DAPK) (Homo sapiens, UniProt P53355). The assay can be described thus: Enzyme assay, DAPK. Type of assay: biochemical. The settings on record: Table 6; read-out: Inhibition DAPK. The procedure:
Therefore, compound MW01-026Z was selected as a starting point for variations on component A (Table 6). […] However, none of the A variations appeared to improve the activity and selectivity profile of CompoundMW01-026Z. (For purposes of illustration, only, component G was maintained throughout as an acyl moiety, while component R2 was varied as shown. All such compositions are available using the synthetic techniques described herein. Enzyme assays were conducted per procedures described elsewhere herein.) A more comprehensive structure activity relationship is summarized in Table 7, below.
With reference to the compositions of Table 3 and the enzyme assay techniques described elsewhere herein, Table 7 provides structural activity relationships observed, in accordance with this invention.

A further assay deals with BV-2 microglial cells. The assay can be described thus: Cell-based screen for inhibition of LPS-stimulated NO release (Griess assay). On the set-up: species or system murine. The following applies: LPS-stimulated BV-2 cells, 24 hr, nitrite in conditioned media. The procedure:
FIG. 1. Cell-based screen for inhibition of LPS-stimulated NO release. […] Inhibition is expressed as percent control, where the control is the NO accumulation from cells stimulated with LPS alone.
The rationale for using BV-2 cells in high throughput screening was the paucity of well-characterized human microglial cell lines, and the relevant activation responses and signaling pathways reflect those seen in human and rodent primary microglial cultures. Compounds were tested for their effects on NO accumulation in conditioned media of LPS-stimulated BV-2 cells by measurement of nitrite production by the Griess assay as a read-out for iNOS activity, as described previously. Stock solutions of compounds were prepared in dimethylsulfoxide (DMSO) or in water. When stock solutions were prepared in DMSO, control wells contained the same final concentration of DMSO as the compound-containing wells. […] Solutions of compounds for cell treatments were diluted to a 10× final concentration by dilution of stock solutions in αMEM media. The commercially available drugs tested were: compound 5 (KN93 from Alexis); compound 6 (pyrrolidinedithiocarbamate or PDTC from Sigma), compound 7 (SB203580 from Alexis Corporation), compound 8 (PD98059 from Alexis Corporation), and compound 9 (UO126 from Cell Signaling). […] Respectively, Western blots of cell lysates were done with the following antibodies: monoclonal anti-iNOS (1:1000 dilution, Transduction Labs); polyclonal anti-rat IL-1β (1:1000 dilution, R&D Systems, Inc.); monoclonal anti-glial fibrillary acidic protein (GFAP) (1:[…] dilution, Sigma); polyclonal anti-rat alioE (1:15,000 dilution) prepared as described; polyclonal anti-COX-2 (1:500 dilution) and monoclonal anti-phosphoATF2 (1:1000 dilution) from Santa Cruz Biotechnology, polyclonal anti-phosphoCREB (1:1000 dilution), and polyclonal anti-phosphop38 MAPK (1:1000 dilution). Reconstituted enzyme assays were done as described s. The sources of protein kinases were: bovine heart PKA from Promega, rat brain PKC from Calbiochem, rat CaMKII from New England Biolabs, chicken gizzard MLCK prepared as described, and a p38 MAP kinase kit containing recombinant Xenopus p38-MAPK and its human substrate from Upstate Biotechnology. The catalytic domains of these protein kinases retain a high level of amino acid sequence identity across mammalian species, consistent with the lack of documented major differences across species for the in vitro catalytic activity of a given kinase.
FIG. 4. Cell-based screen for functional effects of synthetic compounds on LPS-stimulated NO release from BV-2 cells. BV-2 cells were incubated for 24 hr with LPS (500 ng/ml) in the presence of increasing concentrations of: A) MW01-070C; B) MW01-026Z; C) MW01-118Z; D) MW01-119Z; E) MW01-051Z; F) MW01-160Z; G) MW01-196A; H) MW01-024Z; I) SB203580; J) PDTC; K) U0126; L) PD98059. The nitrite levels in conditioned media were determined. Inhibition is expressed as percentage of control values, where the control is the nitrite level in cells stimulated with LPS alone.
Compounds were tested for their effects on NO production by LPS-stimulated BV-2 cells as previously described [Mirzoeva, S., Koppal, T., Petrova, T. V., Lukas, T. J., Watterson, D. M., and Van Eldik, L. J. (1999) Brain Res. 844, 126-134]. The levels of nitrite, a stable NO metabolite, in conditioned media were determined by the Griess assay as previously described [Hu, J., Castets, F., Guevara, J. L., and Van Eldik, L. J. (1996) J. Biol. Chem. 271, 2543-2547]. Stock solutions of compounds were prepared in DMSO or in water. When stock solutions were prepared in DMSO, control wells contained the same final concentration of DMSO as the compound-containing wells. Solutions of compounds for cell treatments were diluted to a 10× final concentration by dilution of stock solutions of drugs in αMEM media.
(In general: The Griess reaction detects nitrite, a stable product of nitric oxide.)

Another assay has as its target T2, CaMKII (Rattus norvegicus, UniProt P11275).
T2 construct: purchased New England Biolabs
The assay can be described thus: Reconstituted enzyme assay, CaMKII. The settings on record: Table 6; read-out: Inhibition CAMKII. The assay is classed as biochemical. Here is the method: as §1

Another assay concerns rat astrocytes. The assay can be described thus: Western blot of glial activation responses in rat astrocyte cultures. The assay is classed as cell-based. The following applies: LPS-stimulated rat astrocytes, 24 hr, Western blot. Here is the method:
FIG. 2. Selective effects of compound 1 (MW01-070C) on glial activation responses and gene-regulating protein kinase pathways. BV-2 cells and rat astrocytes were treated with control buffer (C) or stimulated with LPS or Aβ1-42 peptide in the presence or absence of compound 1, and cell lysates were analyzed by Western blots. (A) Astrocytes treated with LPS and compound 1 show concentration-dependent inhibition of iNOS and IL-1β production but not GFAP. (B) Astrocytes treated with A β1-42 and compound 1 (10 μM) show inhibition of iNOS and IL-1β but not apoE and COX-2. (C) BV-2 cells treated with LPS and compound 1 (10 μM) show inhibition of phosphorylated (p-) CREB but not p-p38 and p-ATF2, as assayed with antibodies that are specific for the phosphorylated forms of the proteins. Data are expressed as percent control (mean±SD; n=3 determinations).
The rationale for using BV-2 cells in high throughput screening was the paucity of well-characterized human microglial cell lines, and the relevant activation responses and signaling pathways reflect those seen in human and rodent primary microglial cultures. Compounds were tested for their effects on NO accumulation in conditioned media of LPS-stimulated BV-2 cells by measurement of nitrite production by the Griess assay as a read-out for iNOS activity, as described previously. Stock solutions of compounds were prepared in dimethylsulfoxide (DMSO) or in water. When stock solutions were prepared in DMSO, control wells contained the same final concentration of DMSO as the compound-containing wells. […] Solutions of compounds for cell treatments were diluted to a 10× final concentration by dilution of stock solutions in αMEM media. The commercially available drugs tested were: compound 5 (KN93 from Alexis); compound 6 (pyrrolidinedithiocarbamate or PDTC from Sigma), compound 7 (SB203580 from Alexis Corporation), compound 8 (PD98059 from Alexis Corporation), and compound 9 (UO126 from Cell Signaling). SB203580, U0126 and PD98059, PDTC, and KN93 are used as pathway-selective inhibitors of p38 MAPK, MEK1/2, NFκB, and CaMKII signaling pathways. Respectively, Western blots of cell lysates were done with the following antibodies: monoclonal anti-iNOS (1:1000 dilution, Transduction Labs); polyclonal anti-rat IL-1β (1:1000 dilution, R&D Systems, Inc.); monoclonal anti-glial fibrillary acidic protein (GFAP) (1:[…] dilution, Sigma); polyclonal anti-rat alioE (1:15,000 dilution) prepared as described; polyclonal anti-COX-2 (1:500 dilution) and monoclonal anti-phosphoATF2 (1:1000 dilution) from Santa Cruz Biotechnology, polyclonal anti-phosphoCREB (1:1000 dilution), and polyclonal anti-phosphop38 MAPK (1:1000 dilution). Reconstituted enzyme assays were done as described s. The sources of protein kinases were: bovine heart PKA from Promega, rat brain PKC from Calbiochem, rat CaMKII from New England Biolabs, chicken gizzard MLCK prepared as described, and a p38 MAP kinase kit containing recombinant Xenopus p38-MAPK and its human substrate from Upstate Biotechnology. The catalytic domains of these protein kinases retain a high level of amino acid sequence identity across mammalian species, consistent with the lack of documented major differences across species for the in vitro catalytic activity of a given kinase.
FIG. 5. Effects of two compounds on LPS-stimulated INOS and IL-1β production in rat astrocyte cultures. Astrocyte cultures were incubated for 24 hr with control buffer (C), LPS (100 ng/ml) alone, or LPS in the presence of increasing concentrations (0.1, 0.3, 1, 3, 10 μM) of MW01-070C (panel A) or MW01-196A (panel B). The levels of iNOS, proIL-1β, and GFAP were determined by Western blot of cell lysates.
FIG. 6. Effects of MW01-070C on astrocytes treated with various activating stimuli, and analysis of multiple activation responses. Astrocyte cultures were stimulated for 12 hr with Aβ (10 μM), S100B (0.5 μM), or LPS (100 ng/ml) in the absence (−) or presence (+) of MW01-070C (10 μM). […]

Experimental findings from patent US7888357B2, “Anti-inflammatory and protein kinase inhibitor compositions and related methods for downregulation of detrimental cellular responses and inhibition of cell death” (Northwestern University, priority 2001, dated 2011) are described below.

T1 sequence (P11799 935-1906): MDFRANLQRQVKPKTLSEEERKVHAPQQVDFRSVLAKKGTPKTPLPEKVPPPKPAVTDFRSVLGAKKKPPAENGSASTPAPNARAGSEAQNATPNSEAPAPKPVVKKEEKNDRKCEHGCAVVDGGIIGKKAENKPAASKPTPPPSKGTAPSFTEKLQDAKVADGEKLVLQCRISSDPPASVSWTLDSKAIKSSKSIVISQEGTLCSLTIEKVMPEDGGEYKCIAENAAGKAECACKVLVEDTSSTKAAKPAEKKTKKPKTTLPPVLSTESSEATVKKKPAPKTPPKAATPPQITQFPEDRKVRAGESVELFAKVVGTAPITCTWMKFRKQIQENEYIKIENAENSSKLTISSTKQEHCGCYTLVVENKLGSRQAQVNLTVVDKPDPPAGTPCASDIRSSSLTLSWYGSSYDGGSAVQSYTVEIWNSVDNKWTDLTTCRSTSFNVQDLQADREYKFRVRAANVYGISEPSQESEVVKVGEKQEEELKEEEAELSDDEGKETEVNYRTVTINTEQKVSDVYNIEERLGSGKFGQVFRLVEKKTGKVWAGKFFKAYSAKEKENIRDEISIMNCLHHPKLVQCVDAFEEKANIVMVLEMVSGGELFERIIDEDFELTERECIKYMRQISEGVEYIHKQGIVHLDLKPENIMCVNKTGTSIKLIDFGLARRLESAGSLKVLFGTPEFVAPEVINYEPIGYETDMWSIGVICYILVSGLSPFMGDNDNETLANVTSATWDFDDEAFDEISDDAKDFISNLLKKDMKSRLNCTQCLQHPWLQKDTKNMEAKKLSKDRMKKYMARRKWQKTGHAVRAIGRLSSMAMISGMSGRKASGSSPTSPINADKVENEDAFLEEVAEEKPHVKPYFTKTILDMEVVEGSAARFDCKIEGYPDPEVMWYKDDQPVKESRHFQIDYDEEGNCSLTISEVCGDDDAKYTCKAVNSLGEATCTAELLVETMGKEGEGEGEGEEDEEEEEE
Sequence of death associated protein kinase (DAPK) (P53355 whole entry, species assumed): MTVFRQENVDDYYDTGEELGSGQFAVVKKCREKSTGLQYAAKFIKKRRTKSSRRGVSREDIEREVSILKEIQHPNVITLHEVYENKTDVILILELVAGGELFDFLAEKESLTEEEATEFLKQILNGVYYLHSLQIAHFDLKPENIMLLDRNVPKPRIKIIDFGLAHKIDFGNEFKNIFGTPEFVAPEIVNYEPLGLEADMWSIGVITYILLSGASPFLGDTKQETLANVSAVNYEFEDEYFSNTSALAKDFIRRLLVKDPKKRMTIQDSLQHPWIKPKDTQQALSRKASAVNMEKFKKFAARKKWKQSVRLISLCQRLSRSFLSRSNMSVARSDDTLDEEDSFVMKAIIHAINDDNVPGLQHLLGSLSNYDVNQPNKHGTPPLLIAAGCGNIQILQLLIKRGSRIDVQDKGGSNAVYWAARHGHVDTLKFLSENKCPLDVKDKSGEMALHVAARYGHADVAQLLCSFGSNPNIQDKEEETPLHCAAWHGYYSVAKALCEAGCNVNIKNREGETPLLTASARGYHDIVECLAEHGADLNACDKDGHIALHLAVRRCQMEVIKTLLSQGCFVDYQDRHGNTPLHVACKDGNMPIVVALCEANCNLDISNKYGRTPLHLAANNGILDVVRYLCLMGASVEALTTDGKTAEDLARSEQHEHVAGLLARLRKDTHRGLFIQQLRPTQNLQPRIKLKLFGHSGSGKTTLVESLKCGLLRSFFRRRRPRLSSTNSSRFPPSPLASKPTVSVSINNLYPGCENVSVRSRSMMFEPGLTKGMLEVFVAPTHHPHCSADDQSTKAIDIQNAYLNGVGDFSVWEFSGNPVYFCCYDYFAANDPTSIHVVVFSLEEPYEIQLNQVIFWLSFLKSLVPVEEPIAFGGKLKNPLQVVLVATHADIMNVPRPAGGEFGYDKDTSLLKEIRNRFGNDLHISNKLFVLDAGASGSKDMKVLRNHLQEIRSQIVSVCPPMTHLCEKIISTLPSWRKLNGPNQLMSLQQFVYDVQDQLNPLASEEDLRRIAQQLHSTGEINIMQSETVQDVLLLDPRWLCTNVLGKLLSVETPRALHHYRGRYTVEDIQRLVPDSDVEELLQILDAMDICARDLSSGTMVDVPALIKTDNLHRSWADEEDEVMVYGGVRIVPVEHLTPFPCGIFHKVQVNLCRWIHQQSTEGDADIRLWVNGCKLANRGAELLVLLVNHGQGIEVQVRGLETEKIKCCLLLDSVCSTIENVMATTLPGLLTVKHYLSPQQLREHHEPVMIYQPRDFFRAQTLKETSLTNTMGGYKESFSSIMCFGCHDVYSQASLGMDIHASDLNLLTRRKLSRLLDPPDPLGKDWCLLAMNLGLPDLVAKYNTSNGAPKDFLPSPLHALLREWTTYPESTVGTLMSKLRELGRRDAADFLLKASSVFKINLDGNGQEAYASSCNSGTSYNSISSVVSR
T2 sequence (P11275 1-325 limits assumed): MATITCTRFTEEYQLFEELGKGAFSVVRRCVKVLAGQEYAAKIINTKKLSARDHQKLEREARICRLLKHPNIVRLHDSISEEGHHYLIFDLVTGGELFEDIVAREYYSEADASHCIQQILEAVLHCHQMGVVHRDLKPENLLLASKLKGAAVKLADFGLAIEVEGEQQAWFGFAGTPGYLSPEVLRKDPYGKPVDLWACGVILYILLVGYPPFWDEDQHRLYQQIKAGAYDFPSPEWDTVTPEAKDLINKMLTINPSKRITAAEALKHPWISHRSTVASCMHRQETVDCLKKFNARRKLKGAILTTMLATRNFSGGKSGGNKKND

As for `N=c1ccc(-c2ccccc2)nn1CCCCCCCC(=O)Nc1ccc(-c2ccccc2)nn1` [MW01-086B], the IC50 in assay [1] and in assay [2] was over 100 µM throughout. For the molecule `N=c1cc2c(nn1CCCCC(=O)N1CCN(c3ncccn3)CC1)-c1ccccc1CC2` [MW01-160Z], the “inhibition of NO accumulation by activated glia” value (“inhibition of NO accumulation” for short) in the assay on BV-2 microglial cells is “no more active than inhibitors of the NFκB pathway (PDTC)”. Consider `O=C(CCCCCCCCCNc1ccc(-c2ccccc2)nn1)Nc1ccc(-c2ccccc2)nn1` [MW01-038B], for which the IC50 in assay [1] and in assay [2] was over 100 µM throughout.

Take `N=c1cc2c(nn1CCCCCCCC(=O)Nc1ccc(-c3ccccc3)nn1)-c1ccccc1CC2` [MW01-097B]: the IC50 was 20 to 50 µM in assay [1], over 100 µM in assay [2] and over 100 µM on CaMKII. For the molecule `Cc1ccc(NC(=O)CCCCCCCCCCn2nc3c(cc2=N)CCc2ccccc2-3)nn1` [MW01-020B], the IC50 (in assay [1]; in assay [2]; at CaMKII) was over 100 µM throughout. `C[S+]([O-])c1ccc(-c2nc(-c3ccncc3)c(-c3ccc(F)cc3)[nH]2)cc1` (centres unmarked) [Compound 7, SB203580, reference compound]: the “inhibition of NO accumulation” value in the assay with BV-2 microglial cells is “less effective”. In the case of `O=C(CCCCCCCCCCN1CCN(c2ncccn2)CC1)N1CCN(c2ncccn2)CC1` [MW01-024Z], in the assay with BV-2 microglial cells, the “inhibition of NO accumulation” value was “does not have any greater cellular activity than commercially available drugs and inhibitors”. The same measure, in the same setting: the value for `N=c1cc2c(nn1CCCCCCCC(=O)N1CCN(c3ncccn3)CC1)-c1ccccc1CC2` [MW01-051Z] was “significant NO inhibition activity”. `N=c1cc2c(nn1CCCCCCCCCCC(=O)Nc1nnc(-c3ccccc3)c3ccccc13)-c1ccccc1CC2` [MW01-119Z]: the “inhibition of NO accumulation” value in the assay with BV-2 microglial cells is listed as “better efficacy than established anti-inflammatory compounds like SB203580”. Take `Cc1cc(NC(=O)CCCCCCCCCCn2nc3c(cc2=N)CCc2ccccc2-3)nnc1-c1ccccc1` [MW01-008B]: the IC50 in assay [1] was under 20 µM; in assay [2] it was 50 to 100 µM; on CaMKII it was 50 to 100 µM. For the molecule `Cc1cc(=N)n(CCCCCCCCCCC(=O)Nc2ccc(-c3ccccc3)nn2)nc1-c1ccccc1` [MW01-103B], the IC50 in assay [1] was 20 to 50 µM; in assay [2], 50 to 100 µM; at CaMKII, over 100 µM. For `COc1cccc(-c2cc(=O)c3ccccc3o2)c1N` [Compound 8, PD98059, reference compound], the “inhibition of NO accumulation” value in the assay on BV-2 microglial cells is recorded as “less effective”.

In the case of `Cc1ccn(CCCCCCCCCCC(=O)N2CCN(c3ncccn3)CC2)c(=N)c1` [MW01-196-AS], in the assay on rat astrocytes, the IL-1β production entry is listed as “does not show dose dependent inhibition” and the iNOS production entry was “does not show dose dependent inhibition”. For the same molecule, in the assay with BV-2 microglial cells, the “inhibition of NO accumulation” value is given as “little activity”.

On to `N#CC(=C(/N)Sc1ccccc1N)/C(C#N)=C(\N)Sc1ccccc1N` [Compound 9, U0126, reference compound], for which the “inhibition of NO accumulation” value in the assay with BV-2 microglial cells was “less effective”.
